Reference: patent publication US8470772B2, “Leptin agonist and methods of use” (Temple University—Of The Commonwealth System of Higher …, priority 2008, dated 2013)
Non-standard residues stand in square brackets, D forms with d. No end group written: not given here. *: point of attachment. βGlc = OC[C@H]1O[C@@H](*)[C@H](O)[C@@H](O)[C@@H]1O; Tyr(3,5-I2) = N[C@@H](Cc1cc(I)c(O)c(I)c1)C(=O)O; Dap = NC[C@H](N)C(=O)O

What was measured:
[1] = In vivo biodistribution of DY675-labeled peptide by fluorescence imaging; conditions: intraperitoneal, female Balb/c mice, up to 65 minutes
Procedure: E1Free peptide was co-synthesized with the near-infrared absorbing fluorescent dye DY675 and the resultant labeled peptide was purified by RP-HPLC. Forty microgams of the peptide was injected intraperiotoneally into shaved and isoflurane anesthesized female Balb/c mice. For imaging of the biodistribution of the peptide, the animals were placed into a fluorescence microscope chamber under continuous isoflurane exposure. Fluorescence exposure pictures were taken with an IVIS microscope set to a 695 nm emission wavelength. Images were obtained once a minute for the first ten minutes after peptide addition and every five minutes afterwards, until a 65 minute stop point was reached.

ERK1/2 = test: ObR signaling assay: ERK1/2 phosphorylation in MCF-7 cells by Western blotting; assay type: cell-based, human
Procedure: MCF-7 cells were grown and treated with E1Free peptide and full-sized leptin as described for the cell stimulation assays elsewhere herein. Cells were lysed with SDS sample buffer and scraped off of the plate. DNA was sheared using sonication, after which the sample was heated to 95° C., centrifuged and, subjected to SDS-PAGE. After gel electrophoresis, the proteins were transferred to nitrocellulose membrane. The membrane was incubated with 5% milk as blocking buffer, followed by addition of rabbit polyclonal antibodies to phosphorylated or total ERK1/2 MAP kinases (1:500 dilution in TBST and 2% milk, Cell Signaling Technology). The expression of a constitutive Hsp72/74 protein was probed with mouse monoclonal antibodies to control protein loading (1:5,000 dilution in TBST and 3% milk Calbiochem). After extensive washing, the blots incubated with HRP-conjugated secondary anti-rabbit (1:1,000 in TBST and 2% milk, Santa Cruz Biotechnology) and anti-mouse (1:10,000 TBST and 3% milk, Amersham Biosciences) IgG antibodies produced in goats, and developed as described for the dot-blot above.

MCF-7 cells = test: MCF-7 cell stimulation (cell growth) assay, cell counts by trypan blue exclusion; assay type: cell-based, human; conditions: for MCF-7 cell count increase: no leptin
Source text: For the evaluation of the biological activity of the synthesized leptin Site III peptide fragments, human cell lines were selected in which the ObR expression level is known. Two ObR-positive human cell models were used: MCF-7 breast cancer cells and DU-45 prostate cancer cells. Both cell lines express ObR, and leptin and leptin analogues stimulate their growth (C. Garofalo, et al., Clin. Cancer Res., 2004, 10, 6466-6475; C. Garofalo, et al., Clin. Cancer Res., 2006, 12, 1447-1453). Normal mammary epithelial MCF-10 cells lacking ObR were used as a negative control (X. Hu, et al., J. Natl. Cancer Inst., 2002, 94, 1704-1711).
Biological activity of the Site III peptides was assayed as follows. MCF-7 cells were stimulated with 6 nM full-sized leptin. The smaller leptin fragments and analogs were added to the cell culture at a concentration of 10 nM, 100 nM or 1 μM. Leptin at […] concentration stimulated MCF-7 cell growth by approximately 40%, in line with previous observations (C. Garofalo, et al., Clin. Cancer Res., 2004, 10, 6466-6475). All Site III peptides bound to the extracellular domain of ObR as documented by dot-blot or Western-blot analysis. […] In fact, it reversed leptin induced stimulation of MCF-7 cells at as low as 10 nM peptide concentration, with an additional 50% reduction in cell counts at 1 μM. When the assay was run at a more reliably measurable 1 μM peptide concentration, a consistent 6% decrease in cell numbers could be observed compared to the leptin only samples. In summary, in the presence of exogenously added full-sized leptin these assays verified the strong antagonist activity of the Site III Ala,Ala mutant.
The cell stimulation activity of the Site III peptides was assayed as follows. Human leptin was purchased from R&D Systems and used at a concentration of 100 ng/mL (approximately 6 nM). MCF-7 and DU-45 cells naturally expressing ObR were grown in a standard medium DMEM:F12 plus 5% fetal bovine serum. MCF-10 was grown in serum-free mammalian epithelial growth medium supplemented with 100 ng/mL cholera toxin. Seventy percent confluent cultures were synchronized in serum-free medium (DMEM plus 10 μM FeSO4, plus 0.5% albumin) for 24 h and then treated with leptin and/or peptides (different doses) for 5 days. Cell counts before and after treatment were determined by counting the cells using trypan blue exclusion. All assays were conducted in triplicate and repeated at least twice.

[2] = test system: ovariectomised (OVX) ewes; test: Voluntary food intake in animals with icv infusion; assay type: in vivo
Procedure: This experiment was conducted using ovariectomised (OVX) ewes (n=4/group: 55 kg). Ovariectomy removes cyclic effects of ovarian steroids, which affect sensitivity to leptin. The experiments were performed in an isolated room with an ambient temperature range of 17-22° C. […] peptide was administered to animals by way of Silastic cannulae introduced into the lateral cerebral ventricle (H8) for intracerebroventricular (icv) infusion. For infusion, pyrogen-free leptin peptide was dissolved in 0.1 mM HCl and diluted in artificial cerebrospinal fluid (aCSF) to a concentration of 10 μg/100 μl. All infusions were initiated at 0900 hours and control animals received an infusion of aCSF 100 μl/hour.

Tyr(I2)-Serβ(Glc)-Thr-Glu-Va1-Va1-Ala-Leu-Ser-Arg-Leu-Dap(Ac) ([Tyr(3,5-I2)]S(βGlc)TEVVALSRL[Dap](Ac)-NH2) [E1Free]
biodistribution [1]: localizes in the head, as well as the kidneys and liver | peptide concentration of maximum observed ERK1/2 stimulation (ERK1/2): 200 nM | phosphorylation of ERK1/2 (ERK1/2; total ERK1/2 steady): increased | MCF-7 cell count increase (MCF-7 cells; 100 nM peptide): 81% | further increase of leptin-induced cell stimulation (MCF-7 cells; 1000 nM peptide, in the presence of 6 nM leptin): 84% | MCF-7 cell count increase (MCF-7 cells; 1000 nM peptide): 114% | overall agonist character on cells expressing ObR (MCF-7 cells; in the presence and absence of leptin): full agonists | reduction of voluntary food intake compared to controls (aCSF) ([2]; 10 μg/hour for 7 hours icv, program-fed OVX ewes, P<0.05): approx. 25% | effect on voluntary food intake ([2]; icv infusion, OVX ewes, over the course of two days): voluntarily reduce the amount of food taken in
